Literature values, collected in US20160081937A1, “TABLET WITH INCREASED DRUG LOAD OF ODANACATIB” (SANDOZ AG, priority 2013, published 2016).

Columns and labels:
[1] = crystalline odanacatib
[2] = in vivo

aqueous solubility [1]: low
Compound: CC(C)(F)C[C@H](N[C@@H](c1ccc(-c2ccc(S(C)(=O)=O)cc2)cc1)C(F)(F)F)C(=O)NC1(C#N)CC1 [Odanacatib, odanacatib]
lumbar spine, hip and femoral neck BMD (patients treated once weekly with 20-50 mg): increases | BMD at the same sites (lumbar spine, hip, femoral neck) (patients treated with low doses): decreases | oral bioavailability [2]: highly dependable on vehicle, dosage and sample preparation
